According to patent US20210347709A1, “RADIOFLUORINATED GPC3-BINDING PEPTIDES FOR PET IMAGING OF HEPATOCELLULAR CARCINOMA” (University of Southern California, priority 2020, published 2021):

Key:
[1] = molecular target: T1, GPC3 (Homo sapiens, UniProt P51654); assay: Binding assay by surface plasmon resonance (SPR); details: GPC3 protein immobilized on 3D Dextran chip
T1 construct: purchased Novoprotein, China
Procedure: Binding Assay. The binding affinity of the GP2076 or GP2633 peptide for GPC3 was determined using surface plasmon resonance (SPR) measurements (PlexArray HT A100, Plexera, USA). In brief, after the GPC3 protein (Novoprotein, China) was immobilized on a 3D Dextran chip, the GP2076 or GP2633 peptide flowed at increasing concentrations (400 nM and 800 nM). The results were analyzed by PlexeraDE software.

[2] = In vitro biocompatibility (cell counting Kit-8 cell viability); format: cell-based; details: human, HepG2 cells, all concentrations 120 to 840 μg/ml
Procedure: In Vitro Biocompatibility. A colorimetric assay was utilized to determine cell viability after treating GPC3 positive HepG2 cells with the GP2076 or GP2633 peptide. The assay was carried out according to the instruction of the manufacturer. In brief, HepG2 cells were seeded at a density of 1×10^4 cells/well in a 96-well plate. After the incubation of the GP2076 or GP2633 peptide at various concentrations (0, 120, 240, 360, 480, 600, 720, and 840 μg/ml) with HepG2 cells for 24 h, the HepG2 cells were examined using the cell counting Kit-8 (KeyGen Biotech, Nanjing, China). The absorbance at 450 nm of all the wells in the 96-well microplate was recorded on a microplate reader (BIOTEK ELX800, USA). The experiment was performed in quadruplicate.

T1 sequence (P51654 25-554): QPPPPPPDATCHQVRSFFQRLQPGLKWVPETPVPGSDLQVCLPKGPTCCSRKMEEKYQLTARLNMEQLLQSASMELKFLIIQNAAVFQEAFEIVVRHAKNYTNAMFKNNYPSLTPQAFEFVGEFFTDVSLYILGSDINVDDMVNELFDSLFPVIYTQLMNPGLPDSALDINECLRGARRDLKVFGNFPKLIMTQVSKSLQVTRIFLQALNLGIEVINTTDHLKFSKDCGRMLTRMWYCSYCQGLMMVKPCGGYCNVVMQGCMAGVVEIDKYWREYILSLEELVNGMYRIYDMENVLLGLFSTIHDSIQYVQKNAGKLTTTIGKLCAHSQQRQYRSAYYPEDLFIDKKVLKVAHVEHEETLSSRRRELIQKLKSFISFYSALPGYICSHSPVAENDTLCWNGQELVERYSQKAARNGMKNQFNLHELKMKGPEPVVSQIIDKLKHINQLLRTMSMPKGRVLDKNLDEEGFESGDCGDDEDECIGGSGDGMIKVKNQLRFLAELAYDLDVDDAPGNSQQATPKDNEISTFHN

Which results are given for CC(C)C[C@H](NC(=O)[C@H](CCCNC(=N)N)NC(=O)[C@H](CC(N)=O)NC(=O)[C@H](CC(=O)O)NC(=O)[C@H](CCCNC(=N)N)NC(=O)CNC(=O)CNC(=O)CNC(=S)Nc1ccc(CC2CN(CC(=O)O)CCN(CC(=O)O)CCN2CC(=O)O)cc1)C(=O)N[C@@H](CC(N)=O)C(=O)N[C@H](C(=O)NCC(=O)NCC(=O)N[C@H](C(=O)N[C@@H](Cc1ccc(O)cc1)C(=O)N[C@@H](Cc1ccccc1)C(=O)N[C@@H](CC(C)C)C(=O)N[C@H](C(=O)N[C@H](C(=O)N[C@@H](CCCNC(=N)N)C(=O)N[C@@H](CCC(N)=O)C(=O)O)[C@@H](C)O)[C@@H](C)O)[C@@H](C)O)C(C)C (stereo partly shown) [GP2633]?
Kd [1]: 63.3 nM; viability at 24 h [2]: > 90%

What does the source list for CC(C)C[C@H](NC(=O)[C@H](CCCNC(=N)N)NC(=S)Nc1ccc(CC2CN(CC(=O)O)CCN(CC(=O)O)CCN2CC(=O)O)cc1)C(=O)N[C@@H](CC(N)=O)C(=O)N[C@H](C(=O)NCC(=O)NCC(=O)N[C@H](C(=O)N[C@@H](Cc1ccc(O)cc1)C(=O)N[C@@H](Cc1ccccc1)C(=O)N[C@@H](CC(C)C)C(=O)N[C@H](C(=O)N[C@H](C(=O)N[C@@H](CCCNC(=N)N)C(=O)N[C@@H](CCC(N)=O)C(=O)O)[C@@H](C)O)[C@@H](C)O)[C@@H](C)O)C(C)C (stereo partly shown) [GP2076]?
Kd [1]: 101 nM; viability at 24 h [2]: > 90%
